Assay results taken from patent publication US6737383B1, “Herbicidal oxadiazolidines” (priority 1999, dated 2004).

Assays:
[1] = system: bedstraw; assay: Test B pre/postemergence bedstraw; format: in vivo, Galium aparine; settings: Preemergence, Rate 62 g/ha; scale 0 to 10 (0 no effect, 10 complete control)
Summary of the method: (§1)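 Test chemicals in a non-phytotoxic solvent mixture with surfactant were sprayed preemergence onto planted seeds and postemergence onto plants 2 to 18 cm tall (1- to 4-leaf stage). After twelve to sixteen days in a greenhouse, injury was visually rated against untreated controls from 0 (no effect) to 10 (complete control).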

[2] = system: blackgrass; assay: Test B pre/postemergence blackgrass; format: in vivo, Alopecurus myosuroides
Summary of the method: as §1

[3] = system: surinam grass; assay: Test B pre/postemergence surinam grass; format: in vivo, Brachiaria decumbens
Summary of the method: as §1

[4] = system: cocklebur; assay: Test B pre/postemergence cocklebur; format: in vivo, Xanthium strumarium
Summary of the method: as §1

[5] = system: corn; assay: Test B pre/postemergence corn; format: in vivo, Zea mays
Summary of the method: as §1

[6] = system: crabgrass; assay: Test B pre/postemergence crabgrass; format: in vivo, Digitaria sanguinalis
Summary of the method: as §1

[7] = system: giant foxtail; assay: Test B pre/postemergence giant foxtail; format: in vivo, Setaria faberii
Summary of the method: as §1

[8] = system: morningglory; assay: Test B pre/postemergence morningglory; format: in vivo, Ipomoea hederacea
Summary of the method: as §1

[9] = system: pigweed; assay: Test B pre/postemergence pigweed; format: in vivo, Amaranthus retroflexus
Summary of the method: as §1

[10] = system: rape; assay: Test B pre/postemergence rape; format: in vivo, Brassica napus
Summary of the method: as §1

[11] = system: soybean; assay: Test B pre/postemergence soybean; format: in vivo, Glycine max
Summary of the method: as §1

[12] = system: sugar beet; assay: Test B pre/postemergence sugar beet; format: in vivo, Beta vulgaris
Summary of the method: as §1

[13] = system: velvetleaf; assay: Test B pre/postemergence velvetleaf; format: in vivo, Abutilon theophrasti
Summary of the method: as §1

[14] = system: wheat; assay: Test B pre/postemergence wheat; format: in vivo, Triticum aestivum
Summary of the method: as §1

[15] = system: wild oat; assay: Test B pre/postemergence wild oat; format: in vivo, Avena fatua
Summary of the method: as §1

[16] = system: purple nutsedge; assay: Test B pre/postemergence purple nutsedge; format: in vivo, Cyperus rotundus
Summary of the method: as §1

[17] = system: rice; assay: Test B flood test rice; format: in vivo, Oryza sativa
Summary of the method: (§2)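 Plants were grown to the 2-leaf stage before treatment with test chemical, then held in a greenhouse for twelve to sixteen days. Injury was visually rated against untreated controls on a 0–10 scale, where 0 is no effect and 10 is complete control.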

[18] = system: smallflower flatsedge; assay: Test B flood test smallflower flatsedge; format: in vivo, Cyperus difformis
Summary of the method: as §2

[19] = system: duck salad; assay: Test B flood test duck salad; format: in vivo, Heteranthera limosa
Summary of the method: as §2

[20] = system: bamyardgrass; assay: Test B flood test barnyardgrass; format: in vivo, Echinochloa crus-galli
Summary of the method: as §2

[21] = Postemergence, Rate 62 g/ha, scale of 0 to 10, 0 is no effect, 10 is complete control
[22] = Postemergence, Rate 125 g/ha, scale of 0 to 10 where 0 is no effect and 10 is complete control
[23] = Postemergence, Rate 250 g/ha, scale of 0 to 10, 0 is no effect, 10 is complete control
[24] = Postemergence, Rate 500 g/ha, scale of 0 to 10 where 0 is no effect and 10 is complete control
[25] = Preemergence, Rate 62 g/ha, scale 0 to 10 (0 no effect, 10 complete control)
[26] = Preemergence, Rate 125 g/ha, scale of 0 to 10 where 0 is no effect and 10 is complete control
[27] = Preemergence, Rate 500 g/ha, scale of 0 to 10 where 0 is no effect and 10 is complete control
[28] = Rate 62 g/ha, flood test species, Pre-emergence, visual evaluation after twelve to sixteen days
[29] = Rate 125 g/ha, under heading Pre-emergence, flood test species, visual evaluation after twelve to sixteen days
[30] = Rate 250 g/ha, Pre-emergence (flood test species), scale 0 to 10, 0 is no effect, 10 is complete control
[31] = Rate 500 g/ha, Pre-emergence section of Table B, 0 to 10 scale (0 no effect, 10 complete control)

**Q.** What does the source list for `CCc1nc(C)c(C(C)n2c(=O)on(C(=O)N(c3ccc(Cl)cc3)C(C)C)c2=O)s1` (stereo not drawn) [Compound 590]?
**A.** Bedstraw plant response rating [1]: 0; Blackgrass plant response rating [2, 21]: 0; Plant response rating, Blackgrass [2, 22]: 0; Blackgrass plant response rating [2, 23]: 0; Plant response rating, Blackgrass [2, 24]: 0; Blackgrass plant response rating [2, 25]: 0; Blackgrass plant response rating [2, 26]: 0; Blackgrass plant response rating (0 to 10 scale) ([2]; Preemergence, Rate 250 g/ha): 0; Blackgrass plant response rating [2, 27]: 0; B. signalgrass plant response rating [3, 21]: 0; Plant response rating, B. signalgrass [3, 22]: 0; B. signalgrass plant response rating [3, 23]: 0; Plant response rating, B. signalgrass [3, 24]: 0; B. signalgrass plant response rating [3, 25]: 0; B. signalgrass plant response rating [3, 26]: 0; B. signalgrass plant response rating (0 to 10 scale, 0 is no effect, 10 is complete control) ([3]; Preemergence, Rate 250 g/ha): 0; B. signalgrass plant response rating [3, 27]: 0; Cocklebur plant response rating [4, 21]: 0; Plant response rating, Cocklebur [4, 22]: 0; Cocklebur plant response rating [4, 23]: 0; Plant response rating, Cocklebur [4, 24]: 0; Cocklebur plant response rating [4, 25]: 0; Cocklebur plant response rating [4, 26]: 0; Cocklebur plant response rating (0 to 10 scale) ([4]; Preemergence, Rate 250 g/ha): 0; Cocklebur plant response rating [4, 27]: 0; Corn plant response rating [5, 21]: 0; Plant response rating, Corn [5, 22]: 0; Corn plant response rating [5, 23]: 0; Plant response rating, Corn [5, 24]: 0; Corn plant response rating [5, 25]: 0; Corn plant response rating [5, 26]: 0; Corn plant response rating (0 to 10 scale) ([5]; Preemergence, Rate 250 g/ha): 0; Corn plant response rating [5, 27]: 0; Crabgrass plant response rating [6, 21]: 0; Plant response rating, Crabgrass [6, 22]: 0; Crabgrass plant response rating [6, 23]: 0; Plant response rating, Crabgrass [6, 24]: 2; Crabgrass plant response rating [6, 25]: 0; Crabgrass plant response rating [6, 26]: 0; Crabgrass plant response rating [6, 27]: 3; Giant foxtail plant response rating [7, 21]: 0; Plant response rating, Giant foxtail [7, 22]: 0; Giant foxtail plant response rating [7, 23]: 0; Plant response rating, Giant foxtail [7, 24]: 0; Giant foxtail plant response rating [7, 25]: 0; Giant foxtail plant response rating [7, 26]: 0; Giant foxtail plant response rating [7, 27]: 7; Morningglory plant response rating [8, 21]: 2; Plant response rating, Morningglory [8, 22]: 3; Morningglory plant response rating [8, 23]: 3; Plant response rating, Morningglory [8, 24]: 4; Morningglory plant response rating [8, 25]: 0; Morningglory plant response rating [8, 26]: 0; Morningglory plant response rating [8, 27]: 0; Plant response rating, Redroot pigweed [9, 22]: 0; Redroot pigweed plant response rating [9, 23]: 0; Plant response rating, Redroot pigweed [9, 24]: 0; Redroot pigweed plant response rating [9, 25]: 0; Redroot pigweed plant response rating [9, 26]: 0; Redroot pigweed plant response rating [9, 27]: 0; Rape plant response rating [10, 21]: 0; Plant response rating, Rape [10, 22]: 0; Rape plant response rating [10, 23]: 0; Plant response rating, Rape [10, 24]: 0; Rape plant response rating [10, 25]: 0; Rape plant response rating [10, 26]: 0; Rape plant response rating [10, 27]: 0; Plant response rating, Soybean [11, 22]: 1; Soybean plant response rating [11, 23]: 3; Plant response rating, Soybean [11, 24]: 3; Soybean plant response rating [11, 25]: 0; Soybean plant response rating [11, 26]: 0; Soybean plant response rating [11, 27]: 0; Plant response rating, Sugarbeets [12, 22]: 0; Sugarbeets plant response rating [12, 23]: 0; Plant response rating, Sugarbeets [12, 24]: 0; Sugarbeets plant response rating [12, 25]: 0; Sugarbeets plant response rating [12, 26]: 0; Sugarbeets plant response rating [12, 27]: 0; Plant response rating, Velvetleaf [13, 22]: 0; Velvetleaf plant response rating [13, 23]: 2; Plant response rating, Velvetleaf [13, 24]: 2; Velvetleaf plant response rating [13, 25]: 0; Velvetleaf plant response rating [13, 26]: 0; Velvetleaf plant response rating [13, 27]: 0; Plant response rating, Wheat [14, 22]: 0; Wheat plant response rating [14, 23]: 0; Plant response rating, Wheat [14, 24]: 0; Wheat plant response rating [14, 25]: 0; Wheat plant response rating [14, 26]: 0; Wheat plant response rating [14, 27]: 0; Plant response rating, Wild oats [15, 22]: 0; Wild oats plant response rating [15, 23]: 0; Plant response rating, Wild oats [15, 24]: 0; Wild oats plant response rating [15, 25]: 0; Wild oats plant response rating [15, 26]: 0; Wild oats plant response rating [15, 27]: 0; Nutsedge plant response rating [16, 21]: 0; Plant response rating, Nutsedge [16, 22]: 0; Nutsedge plant response rating [16, 23]: 0; Plant response rating, Nutsedge [16, 24]: 0; Nutsedge plant response rating [16, 25]: 0; Nutsedge plant response rating [16, 26]: 0; Nutsedge plant response rating [16, 27]: 0; Plant response rating, Rice (0 to 10 scale, 0 is no effect, 10 is complete control) [17, 28]: 0; Rice plant response rating (0 to 10 scale, 0 is no effect, 10 is complete control) [17, 29]: 0; Rice plant response rating [17, 30]: 0; Rice plant response rating [17, 31]: 0; Plant response rating, S. Flatsedge (0 to 10 scale, 0 is no effect, 10 is complete control) [18, 28]: 0; S. Flatsedge plant response rating (0 to 10 scale, 0 is no effect, 10 is complete control) [18, 29]: 0; S. Flatsedge plant response rating [18, 30]: 0; S. Flatsedge plant response rating [18, 31]: 0; Plant response rating, Ducksalad (0 to 10 scale, 0 is no effect, 10 is complete control) [19, 28]: 0; Ducksalad plant response rating (0 to 10 scale, 0 is no effect, 10 is complete control) [19, 29]: 0; Ducksalad plant response rating [19, 30]: 0; Ducksalad plant response rating [19, 31]: 0; Plant response rating, Barnyardgrass (0 to 10 scale, 0 is no effect, 10 is complete control) [20, 28]: 0; Barnyardgrass plant response rating (0 to 10 scale, 0 is no effect, 10 is complete control) [20, 29]: 0; Barnyardgrass plant response rating [20, 30]: 0; Barnyardgrass plant response rating [20, 31]: 0
